Key:
[1] = biological target: T1, human A2B receptors (Homo sapiens, UniProt P29275); assay: Inhibition of human A2B receptor in recombinant HEK293 cells, cAMP quantification (HTRF); format: cell-based; conditions: read-out: A2B (Category)
T1 construct: expressed in transfected cells; host or cells: HEK293
T1 sequence (P29275 1-332): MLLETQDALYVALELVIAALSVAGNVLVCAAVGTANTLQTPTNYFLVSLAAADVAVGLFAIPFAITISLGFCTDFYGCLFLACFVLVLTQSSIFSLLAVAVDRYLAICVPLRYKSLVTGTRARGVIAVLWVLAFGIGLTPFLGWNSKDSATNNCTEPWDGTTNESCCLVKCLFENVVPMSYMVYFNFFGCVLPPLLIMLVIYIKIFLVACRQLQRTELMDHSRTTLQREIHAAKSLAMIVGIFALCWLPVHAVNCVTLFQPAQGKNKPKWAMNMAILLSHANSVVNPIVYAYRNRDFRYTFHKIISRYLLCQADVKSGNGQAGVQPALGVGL
Experimental: (§1) The functional activities of human A2A and A2B receptors were determined by quantification of cAMP, being the second messenger for adenosine receptors.
(§2) After a 15 min incubation, HTRF reagents (cAMP dynamic 2, Cis Bio) were added and the cellular cAMP levels were determined using the ENVISION (Perkin Elmer) plate reader.

[2] = biological target: T2, human A2A receptors (Homo sapiens, UniProt P29274); assay: Inhibition of human A2A receptor in recombinant HEK293 cells, cAMP quantification (HTRF); format: cell-based; conditions: read-out: A2A (Category)
T2 construct: expressed in transfected cells; host or cells: HEK293
Experimental: as §1, §2

T2 sequence (P29274 whole entry): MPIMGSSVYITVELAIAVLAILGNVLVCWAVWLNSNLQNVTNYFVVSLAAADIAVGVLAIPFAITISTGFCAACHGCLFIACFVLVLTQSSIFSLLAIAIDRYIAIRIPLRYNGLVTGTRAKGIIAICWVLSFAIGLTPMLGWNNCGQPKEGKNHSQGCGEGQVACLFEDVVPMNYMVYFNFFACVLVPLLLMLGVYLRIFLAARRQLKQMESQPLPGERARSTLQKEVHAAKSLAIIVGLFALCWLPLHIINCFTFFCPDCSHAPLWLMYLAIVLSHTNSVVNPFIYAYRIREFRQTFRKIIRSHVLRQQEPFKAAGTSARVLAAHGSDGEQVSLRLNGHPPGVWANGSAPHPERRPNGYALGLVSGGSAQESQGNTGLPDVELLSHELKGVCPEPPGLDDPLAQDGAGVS

SMILES | IC50 [1] [nM] | IC50 [2] [nM]
O=C(c1cc2c(cn1)c(Nc1ccccc1F)nn2CC(F)(F)F)N1CCCOCC1 [Compound 1, [3-(2-fluoroanilino)-1-(2,2,2-trifluoroethyl)pyrazolo[4,3-c]pyridin-6-yl]-(1,4-oxazepan-4-yl)methanone] | < 1000 | < 100
O=C(c1cc2c(cn1)c(Nc1ccccc1)nn2CC(F)(F)F)N1CCCOCC1 [Compound 2, [3-anilino-1-(2,2,2-trifluoroethyl)pyrazolo[4,3-c]pyridin-6-yl]-(1,4-oxazepan-4-yl)methanone] | < 1000 | < 100
O=C(c1cc2c(cn1)c(Nc1cccc(F)c1)nn2CC(F)(F)F)N1CCCOCC1 [Compound 6, [3-(3-fluoroanilino)-1-(2,2,2-trifluoroethyl)pyrazolo[4,3-c]pyridin-6-yl]-(1,4-oxazepan-4-yl)methanone] | < 100 | < 100
COc1cccc(Nc2nn(CC(F)(F)F)c3cc(C(=O)N4CCCOCC4)ncc23)c1 [Compound 7, [3-(3-methoxyanilino)-1-(2,2,2-trifluoroethyl)pyrazolo[4,3-c]pyridin-6-yl]-(1,4-oxazepan-4-yl)methanone] | < 100 | < 100
N#Cc1cccc(Nc2nn(CC(F)(F)F)c3cc(C(=O)N4CCCOCC4)ncc23)c1 [Compound 8, 3-[[6-(1,4-oxazepane-4-carbonyl)-1-(2,2,2-trifluoroethyl)pyrazolo[4,3-c]pyridin-3-yl]amino]benzonitrile] | < 1000 | < 100
COc1ccc(Nc2nn(CC(F)(F)F)c3cc(C(=O)N4CCCOCC4)ncc23)cc1 [Compound 11, [3-(4-methoxyanilino)-1-(2,2,2-trifluoroethyl)pyrazolo[4,3-c]pyridin-6-yl]-(1,4-oxazepan-4-yl)methanone] | < 1000 | < 100
N#Cc1ccc(Nc2nn(CC(F)(F)F)c3cc(C(=O)N4CCCOCC4)ncc23)cc1 [Compound 13, 4-[[6-(1,4-oxazepane-4-carbonyl)-1-(2,2,2-trifluoroethyl)pyrazolo[4,3-c]pyridin-3-yl]amino]benzonitrile] | < 1000 | < 100
O=C(c1cc2c(cn1)c(Nc1cc(F)cc(F)c1)nn2CC(F)(F)F)N1CCCOCC1 [Compound 15, [3-(3,5-difluoroanilino)-1-(2,2,2-trifluoroethyl)pyrazolo[4,3-c]pyridin-6-yl]-(1,4-oxazepan-4-yl)methanone] | < 1000 | < 100
Cc1ccc(Nc2nn(CC(F)(F)F)c3cc(C(=O)N4CCCOCC4)ncc23)cc1F [Compound 16, [3-(3-fluoro-4-methylanilino)-1-(2,2,2-trifluoroethyl)pyrazolo[4,3-c]pyridin-6-yl]-(1,4-oxazepan-4-yl)methanone] | < 100 | < 100
O=C(c1cc2c(cn1)c(Nc1ccc(F)c(F)c1)nn2CC(F)(F)F)N1CCCOCC1 [Compound 17, [3-(3,4-difluoroanilino)-1-(2,2,2-trifluoroethyl)pyrazolo[4,3-c]pyridin-6-yl]-(1,4-oxazepan-4-yl)methanone] | < 1000 | < 100
O=C(c1cc2c(cn1)c(Nc1ccc(F)c(Cl)c1)nn2CC(F)(F)F)N1CCCOCC1 [Compound 18, [3-(3-chloro-4-fluoroanilino)-1-(2,2,2-trifluoroethyl)pyrazolo[4,3-c]pyridin-6-yl]-(1,4-oxazepan-4-yl)methanone] | < 1000 | < 100
O=C(c1cc2c(cn1)c(Nc1ccc(Cl)c(F)c1)nn2CC(F)(F)F)N1CCCOCC1 [Compound 19, [3-(4-chloro-3-fluoroanilino)-1-(2,2,2-trifluoroethyl)pyrazolo[4,3-c]pyridin-6-yl]-(1,4-oxazepan-4-yl)methanone] | < 100 | < 100
O=C(c1cc2c(cn1)c(Nc1cccc(F)c1)nn2CC(F)(F)F)N1CC2CCC(C1)O2 [Compound 20, [3-(3-fluoroanilino)-1-(2,2,2-trifluoroethyl)pyrazolo[4,3-c]pyridin-6-yl]-(8-oxa-3-azabicyclo[3.2.1]octan-3-yl)methanone] | < 1000 | < 100
O=C(c1cc2c(cn1)c(Nc1ccc(F)cc1)nn2CC(F)(F)F)N1CC2CCC(C1)O2 [Compound 21, [3-(4-fluoroanilino)-1-(2,2,2-trifluoroethyl)pyrazolo[4,3-c]pyridin-6-yl]-(8-oxa-3-azabicyclo[3.2.1]octan-3-yl)methanone] | < 100 | < 100
O=C(c1cc2c(cn1)c(Nc1ccc(F)cc1)nn2CC(F)(F)F)N1CCC(O)CC1 [Compound 22, [3-(4-fluoroanilino)-1-(2,2,2-trifluoroethyl)pyrazolo[4,3-c]pyridin-6-yl]-(4-hydroxy-1-piperidyl)methanone] | < 100 | < 100
O=C(c1cc2c(cn1)c(Nc1cccc(F)c1)nn2CC(F)(F)F)N1CCC(O)CC1 [Compound 23, [3-(3-fluoroanilino)-1-(2,2,2-trifluoroethyl)pyrazolo[4,3-c]pyridin-6-yl]-(4-hydroxy-1-piperidyl)methanone] | < 100 | < 100
O=C(c1cc2c(cn1)c(Nc1ccccn1)nn2CC(F)(F)F)N1CCC(O)CC1 [Compound 24, (4-hydroxy-1-piperidyl)-[3-(2-pyridylamino)-1-(2,2,2-trifluoroethyl)pyrazolo[4,3-c]pyridin-6-yl]methanone] | < 100 | < 100
O=C(c1cc2c(cn1)c(Nc1cccc(F)c1)nn2CC(F)(F)F)N1[C@@H]2CC[C@H]1C[C@@H](O)C2 [Compound 25, [3-(3-fluoroanilino)-1-(2,2,2-trifluoroethyl)pyrazolo[4,3-c]pyridin-6-yl]-(3-endo-hydroxy-8-azabicyclo[3.2.1]octan-8-yl)methanone] | < 100 | < 100
O=C(c1cc2c(cn1)c(Nc1ccc(F)cc1)nn2CC(F)(F)F)N1[C@@H]2CC[C@H]1C[C@@H](O)C2 [Compound 26, [3-(4-fluoroanilino)-1-(2,2,2-trifluoroethyl)pyrazolo[4,3-c]pyridin-6-yl]-(3-endo-hydroxy-8-azabicyclo[3.2.1]octan-8-yl)methanone] | < 1000 | < 100
CS(=O)(=O)Cn1nc(Nc2ccc(F)cc2)c2cnc(C(=O)N3CCCOCC3)cc21 [Compound 27, [3-(4-fluoroanilino)-1-(methylsulfonylmethyl)pyrazolo[4,3-c]pyridin-6-yl]-(1,4-oxazepan-4-yl)methanone] | < 1000 | < 100
CS(=O)(=O)Cn1nc(Nc2cccc(F)c2)c2cnc(C(=O)N3CCCOCC3)cc21 [Compound 28, [3-(3-fluoroanilino)-1-(methylsulfonylmethyl)pyrazolo[4,3-c]pyridin-6-yl]-(1,4-oxazepan-4-yl)methanone] | < 100 | < 100
CS(=O)(=O)Cn1nc(Nc2ccccc2)c2cnc(C(=O)N3[C@@H]4CC[C@H]3C[C@@H](O)C4)cc21 [Compound 29, [3-anilino-1-(methylsulfonylmethyl)pyrazolo[4,3-c]pyridin-6-yl]-(3-endo-hydroxy-8-azabicyclo[3.2.1]octan-8-yl)methanone] | < 100 | < 100
